Experimental data published in publication PMC11396746, “Stability Evaluation and Pharmacokinetic Profiling of Vepdegestrant in Rodents Using Liquid Chromatography–Tandem Mass Spectrometry” (Molecules, 2024).
Like-named read-outs stand apart in the source and are kept apart here.

Legend:
[1] = Plasma protein binding (PPB) using a rapid equilibrium dialysis device; format: in vitro ADME
Protocol: Low plasma stability was predicted based on pH stability results. […] In addition, we evaluated the plasma protein binding (PPB) of vepdegestrant using a rapid equilibrium dialysis device. However, the concentration of vepdegestrant in the buffer was below the quantification limit, making it impossible to determine an accurate binding ratio. This phenomenon persisted even when the administered concentration was increased from 2 to 10 µg/mL or when the plasma was diluted up to 100-fold. […] Furthermore, the recovery of vepdegestrant in the plasma after a 4-h incubation was greater than 85%. The unrecovered fraction may result from nonspecific binding to the device and membrane. Further studies should be conducted using alternative methods.

[2] = Pharmacokinetic study in male ICR mice; format: in vivo; conditions: mouse
Protocol: Twelve healthy male ICR mice (6 weeks old, 27.5–30.5 g) and 10 healthy male Sprague–Dawley (SD) rats (7 weeks old, 195.5–212.0 g) were acquired from Orient Bio Inc. (Seongnam, Republic of Korea) and used for PK studies. The animals were kept in rooms in a temperature range of 20–25 °C, humidity of 40–60%, and a 12-h light/dark cycle. Before the experiment, mice were fasted for 4 h, whereas rats were fasted for 14 h, with only water provided during the fasting period. After 4 h of drug administration, animals were provided with free access to food and water. All animal experiments were approved by the Institutional Animal Care and Use Committee of the Chungnam National University (202310A-CNU-178; Daejeon, Republic of Korea).
For the PK studies in mice, a vepdegestrant dosing solution was prepared using a combination of DMSO, PEG400, and saline (5:25:70, v/v/v). The dosing solution was administered intravenously (IV, 2 mg/kg) through the tail vein or orally (PO, 5 mg/kg) through a gavage needle. The dose volume for both routes was 10 mL/kg. Blood samples (50 μL) were collected via the retro-orbital plexus at 0.05 (IV only), 0.25, 0.5, 1, 2, 4, 8, and 24 h post vepdegestrant administration using heparin-coated microcapillaries. Blood samples were immediately centrifuged at 12,032 g under 25 °C for 5 min, and plasma aliquots (20 μL) were stored at −20 °C until HPLC-MS/MS analysis.
The collected plasma samples from mice or rats (20 µL) were added with IS (20 µL) and ACN (160 µL). Subsequently, the mixture was vigorously mixed for 10 min and centrifuged at 17,054× g under 25 °C for 10 min. An aliquot of the supernatant (100 μL) was taken, and a volume of 5 μL was injected for HPLC-MS/MS analysis. PK parameters were calculated using Phoenix® 8.3 software (Certara L.P., Princeton, NJ, USA), as described previously.

[3] = Stability in PBS only (control of microsomal stability test, no NADPH and no microsomes); format: physicochemical; conditions: PBS (pH 7.4), 1 h incubation
Protocol: The metabolic stability of vepdegestrant was evaluated using liver microsomes obtained from mice, rats, dogs, and humans. Vepdegestrant was dissolved in DMSO to prepare a stock solution with a concentration of 0.1 mM. Microsomes (25 µL) were spiked into PBS (440 µL) and pre-incubated for 5 min. After pre-incubation, vepdegestrant stock solution (5 µL) was added, followed by an NADPH regenerating system (27 µL) to initiate the reaction. The composition of the reaction mixture was as follows: Vepdegestrant (final concentration 1 µM), mouse, rat, dog, human liver microsomes (protein concentration: 1 mg/mL), NADPH regenerating system (final concentrations: 1.3 mM NADP^+, 3.3 mM glucose-6-phosphate, 0.4 U/mL glucose-6-phosphate dehydrogenase, and 3.3 mM magnesium chloride), and PBS (pH 7.4). At 5, 15, 30, and 60 min after starting the reaction, aliquots (50 µL) were taken and added to ice-cold ACN with an IS (200 µL) to terminate the reaction. For the zero-time samples, aliquots were taken before adding NADPH. Subsequently, the mixture was vigorously mixed for 10 min and centrifuged at 17,054 g under 25 °C for 10 min. For analysis, 5 µL of the supernatant was injected into the HPLC-MS/MS system. In addition, the stability of vepdegestrant in rat liver microsomes was assessed in the absence of NADPH or NADPH and microsomes (PBS only). […]

[4] = pH stability in buffer solutions (pH 2-10) and PBS pH 7.4; format: physicochemical; conditions: for vepdegestrant remaining: 2 h, 0.1 µg/mL
Protocol: The physicochemical stability of vepdegestrant was determined using various pH buffers (pH 2.0–10.0) and plasma and microsomes.
A solution of vepdegestrant in methanol (10 µL) was added to buffer solutions at pH 2, 4, 6, 8, and 10 or pH 7.4 PBS (490 µL), yielding a final concentration of 0.1 µg/mL, and incubated at 37 °C, with 100 rpm in a water bath. At 0, 0.5, 1, and 2 h post-incubation, the incubation mixture (50 µL) was transferred to microtubes containing ice-cold ACN solution (200 µL) with IS to terminate the reaction. The mixture was vortexed thoroughly for 10 min. Subsequently, the supernatant (100 µL) was taken, and 5 µL was injected for HPLC-MS/MS analysis.

Q: For `O=C1CC[C@H](N2Cc3cc(N4CCN(CC5CCN(c6ccc([C@@H]7c8ccc(O)cc8CC[C@@H]7c7ccccc7)cc6)CC5)CC4)ccc3C2=O)C(=O)N1` [vepdegestrant, Vepdegestrant], which recovery at 4 h ([1]; plasma in a rapid equilibrium dialysis device, after 4-h incubation in rapid equilibrium dialysis device, read-out: recovery of vepdegestrant in the plasma) is on record?
A: The recovery at 4 h was greater than 85%.

Q: What about the fraction unbound at 4 h ([1]; plasma, calculated assuming buffer concentration at the lowest quantifiable limit, actual PPB likely higher) of the same compound?
A: The fraction unbound at 4 h was 0.001.

Q: What about the Vd ([2]; male, ICR, plasma, intravenous, 2 mg/kg, read-out: volume of distribution) of the same compound?
A: The Vd was greater than 1 L/kg.

Q: What about the Cmax ([2]; male, ICR, plasma, IV 2 mg/kg) of the same compound?
A: The Cmax was 2180 ± 442 ng/mL.

Q: And the MRT ([2]; male, ICR, plasma, IV 2 mg/kg)?
A: The MRT was 4.61 ± 1.43 h.

Q: And the Tmax ([2]; male, ICR, plasma, IV 2 mg/kg)?
A: Its Tmax is 3 min.

Q: What about the clearance ([2]; male, ICR, plasma, IV 2 mg/kg) of the same compound?
A: The clearance was 5.22 mL/min/kg.

Q: And the half-life ([2]; male, ICR, plasma, IV 2 mg/kg)?
A: The half-life was 227 ± 69.1 min.

Q: What about the Vd ([2]; male, ICR, plasma, IV 2 mg/kg, read-out: Vss) of the same compound?
A: The Vd was 1.43 ± 0.472 L/kg.

Q: And the Cmax ([2]; male, ICR, plasma, PO 5 mg/kg)?
A: Its Cmax is 393 ± 133 ng/mL.

Q: And the MRT ([2]; male, ICR, plasma, PO 5 mg/kg)?
A: The MRT was 5.58 ± 1.34 h.

Q: What about the Tmax ([2]; male, ICR, plasma, PO 5 mg/kg) of the same compound?
A: Its Tmax is 60 min.

Q: And the half-life ([2]; male, ICR, plasma, PO 5 mg/kg)?
A: The half-life was 218 ± 83.9 min.

Q: And the bioavailability ([2]; male, ICR, plasma, PO 5 mg/kg vs IV 2 mg/kg, read-out: BA (oral bioavailability))?
A: Its bioavailability is 17.9 ± 4.35%.

Q: And the AUCinf ([2]; IV 2 mg/kg)?
A: Its AUCinf is 6.51 ± 1.06 µg·h/mL.

Q: And the AUClast ([2]; IV 2 mg/kg)?
A: Its AUClast is 6.4 ± 1.08 µg·h/mL.

Q: And the AUCinf ([2]; PO 5 mg/kg)?
A: Its AUCinf is 2.91 ± 0.707 µg·h/mL.

Q: And the AUClast ([2]; PO 5 mg/kg)?
A: The AUClast was 2.87 ± 0.704 µg·h/mL.

Q: What about the “clearance as % of liver blood flow” value ([2]; liver blood flow 5.4 L/h/kg) of the same compound?
A: The value was 5.8%.

Q: And the vepdegestrant remaining [3]?
A: The vepdegestrant remaining was 10.2%.

Q: What about the half-life at 0.1 µg/mL ([4]; PBS pH 7.4, pH 7.4 (PBS), 37 °C) of the same compound?
A: The half-life at 0.1 µg/mL was 30 min.

Q: And the half-life at 0.1 µg/mL ([4]; pH 2 buffer solution, pH 2, 37 °C)?
A: The half-life at 0.1 µg/mL was 441 min.

Q: And the vepdegestrant remaining ([4]; pH 2 buffer, 37 °C)?
A: Its vepdegestrant remaining is 82.6%.

Q: And the half-life at 0.1 µg/mL ([4]; pH 4 buffer solution, pH 4, 37 °C)?
A: Its half-life at 0.1 µg/mL is 46.2 min.

Q: What about the vepdegestrant remaining ([4]; pH 4–10 buffers, 37 °C) of the same compound?
A: The vepdegestrant remaining was 2.25–12.8%.

Q: What about the half-life at 0.1 µg/mL ([4]; pH 6 buffer solution, pH 6, 37 °C) of the same compound?
A: The half-life at 0.1 µg/mL was 24 min.

Q: And the half-life at 0.1 µg/mL ([4]; pH 8 buffer solution, pH 8, 37 °C)?
A: Its half-life at 0.1 µg/mL is 22.8 min.

Q: What about the half-life at 0.1 µg/mL ([4]; pH 10 buffer solution, pH 10, 37 °C) of the same compound?
A: Its half-life at 0.1 µg/mL is 36 min.
